Assay results: US9988606B2, “Generation of airway and lung progenitors and epithelial cells and three-dimensional anterior foregut spheres” (THE TRUSTEES OF COLUMBIA UNIVERSITY IN THE CITY OF NEW YORK, priority 2012, dated 2018)

Tests used:
RUES2 cells [1] = assay: Removing individual factors or blocking signaling pathways during the ventralization stage (d6-d15); type: cell-based, human
Experimental: FIG. 3. Effect of removing individual factors or blocking signaling pathways during the ‘ventralization’ stage (d6-d15) on the expression of FOXA2 and NKX2.1 in RUES2 cells cultured according to the protocol shown on the upper right of the figure. 10× tile scans of 9 (3×3) contiguous fields. Immunofluorescence images represent reproducible results from 3 independent experiments.
Day-15, -25 or -48 cultures in 48-well tissue culture plates were fixed with 4% paraformaldehyde for 15 minutes at room temperature and washed twice with PBS. The cells were permeabilized in PBS with 0.25% triton and 5% fetal donkey serum (Jackson ImmunoResearch, West Grove, Pa.) for 30 min and blocked in 5% fetal donkey serum for 2 hours at room temperature. The cell cultures were stained with one, or a combination of two or three of the following primary antibodies: FOXA2/HNF-3β (goat, Santa Cruz Biotechnology, Inc., Santa Cruz, Calif., Cat#sc-6554, clone M-20, 1:50), TTF-1/Nkx2.1 (mouse, Invitrogen, 18-0221, clone 8G7G3/1, 1:100), TTF-1/Nkx2.1 (Rabbit, Seven Hills Bioreagents, Cincinnati, Ohio, Cat#WRAB-1231, 1:1000), p63α (rabbit, Santa Cruz, sc-8344, clone H-129, 1:100), Sox2 (Rabbit, stemgent, 09-0024, 1:100), Pax 6 (rabbit, Covance, Princeton, N.J., Cat#PRB-278P, 1:300), Pax8 (mouse, Abcam, Cambridge, Mass., Cat#ab53490, 1:100), EpCAM (APC conjugated, mouse, BD Biosciences, BDB347200), Tuj1 (mouse, Sigma, T8578, Clone 2G10, 1:4000), Mucin5AC (mouse (Biotin), Abcam, ab79082, clone 45M1, 1:100), Mucin5B (rabbit, Santa Cruz, sc-20119, clone H-300, 1:100), Mucin2 (rabbit, Santa Cruz, sc-15334, clone H-300, 1:100), Foxj1 (mouse, e-bioscience, San Diego, Calif., Cat#14-9965-82, Clone: 2A5, 1:100), cc-10 (goat, Santa Cruz, clone C-20, sc-9770, 1:100), pro-SPC (rabbit, Seven Hills, WRAB-9337, 1:2000), mature-SPC (rabbit, Seven Hills, WRAB-76694, 1:1000), mature SPB (rabbit, Seven Hills, WRAB-48604, 1:1000), ABCA3 (rabbit, Seven Hills, WRAB-70565, 1:100), Mucin1 (Armenian Hamster, NeoMarkers, Fremont, Calif., Cat#HM-1630-P1ABX, clone MH1, 1:100), Podoplanin (rabbit, Santa Cruz, sc-134482 , FL-162, 1:100), AQP5 (goat, Santa Cruz, sc-9890, clone G-19, 1:100). Secondary antibodies were donkey anti-mouse whole IgG-Alexa Fluor 488, 715-545-150, donkey anti-mouse whole IgG-Alexa Fluor 647, 715-605-150, donkey anti-rabbit whole IgG-Alexa Fluor 488, 711-545-152, donkey anti-rabbit whole IgG-Cy3, 711-166-152, donkey anti-goat whole IgG-Alexa Fluor 488, donkey anti-goat whole IgG-Cy3, 705-165-147, donkey anti-goat whole IgG-Alexa Fluor 647, 705-605-147, all from Jackson ImmunoResearch.
For d6-15 lung progenitor induction (9 days) , the AFE from Example 3 were treated with a ‘ventralization’ cocktail containing CHIR99021, 3 μM (WNT signaling agonist), human FGF10, 10 ng/ml; human FGF7, 10 ng/ml; human BMP4, 10 ng/ml; murine EGF, 20 ng/ml and all-trans retinoic acid (ATRA), 0-1 μM (all from R&D, except CHIR99021 from (Stemgent, Cambridge. Mass.) and ATRA from Sigma) in SFD media for 8-10 days. This treatment produced lung and airway progenitor cells (also herein referred to as “lung field progenitor cells”). At this stage, the lung progenitor cells were early, and they might have committed to a lineage of either lung or airway epithelium, but we wouldn't be able to know because the corresponding airway and distal lung specific markers are not expressed at this stage yet.
To examine the contribution of each of the factors to the specification of lung and airway progenitors, each of the factors was withdrawn from the ‘ventralization’ cocktail (i.e., CHIR99021, FGF10, FGF7, BMP4 and EGF), or blocked by specific inhibitors (i.e., NOGGIN as biological inhibitor of BMP4 signaling and IWP2 as pharmacological inhibitor of WNT signaling), or added at different concentrations (i.e., RA 0, 0.05, 0.1, 0.5, 1 μM, and BMS493 (10 μM, Tocris) as RA inhibitor). […]

RUES2 cells [2] = assay: RA concentration in the ventralization cocktail (NKX2.1 and FOXA2 mRNA and protein); type: cell-based, human
Experimental: FIG. 2.(a) Expression of NKX2.1 and FOXA2 mRNA (lower left) and protein (lower right) after culture of RUES2 cells according to the protocol on top of the panel using various concentrations of RA during the ‘ventralization’ stage. Triplicate experiments representative of 3 independent experiments, *, P<0.05, compared with 0.5 μM RA group. (b) 10× tile scan of 25 (5×5) contiguous fields showing expression of FOXA2, SOX2 and NKX2.1 in RUES2 cells cultured according to the protocol on top of the panel. (c) 20× tile scan of 4 (2×2) contiguous fields showing expression of TUJ1, NKX2.1 and FOXA2.1 in RUES2 cells cultured according to the protocol on top of panel (b). […]
Total RNA was extracted using Trizol (Invitrogen), phase lock tubes (5′ Prime) and RNeasy kit (Qiagen, Valencia, Calif.). RNA concentration was measured with a NanoDrop 2000 […] (Thermo Fisher Scientific). […] Real-time quantitative PCR was performed on ABI vii7A Thermocycler [Applied Biosystems (Life Technologies)] using ABI Power SYBR Green PCR Master Mix [Applied Biosystems (Life Technologies)]. […] Absolute quantification of each gene was obtained using a standard curve of serial diluted genomic DNA and normalized to housekeeping genes β-ACTIN and TBP (Tata Box Binding protein). […]

[3] = factor removed from the CFKB cocktail, d6-d15

Cc1c[nH]c(-c2cnc(NCCNc3ccc(C#N)cn3)nc2-c2ccc(Cl)cc2Cl)n1 [CHIR]
effect of removing the factor on generation of FOXA2+ and FOXA2+NKX2.1+ cells (RUES2 cells [1]; [3]): severely reduced

CC1=C(/C=C/C(C)=C/C=C/C(C)=C/C(=O)O)C(C)(C)CCC1 [RA, all-trans retinoic acid]
NKX2.1 mRNA and NKX2.1+ fraction (RUES2 cells [2]; higher RA concentrations, FOXA2+ endoderm maintained): dropped
induction of NKX2.1 and FOXA2 mRNA and protein (RUES2 cells [2]; low RA concentrations (0.05-0.1 μM)): optimal induction

Cc1ccc2nc(NC(=O)CSc3nc4c(c(=O)n3-c3ccccc3)SCC4)sc2c1 [IWP2]
generation of NKX2.1+ cells (RUES2 cells [1]; CHIR removed plus additional blockade of endogenous WNT signaling by the substance): completely abrogated

B1: BMP4: human BMP4, factor of the ventralization cocktail (protein, UniProt P12644 293-408, looked up)
Bone morphogenetic protein 4: SPKHHSQRARKKNKNCRRHSLYVDFSDVGWNDWIVAPPGYQAFYCHGDCPFPLADHLNSTNHAIVQTLVNSVNSSIPKACCVPTELSAISMLYLDEYDKVVLKNYQEMVVEGCGCR
generation of NKX2.1+ cells after removing the factor (RUES2 cells [1]; [3]): approximately 40%

B2: FGF10: human FGF10, factor of the ventralization cocktail (protein, UniProt O15520 38-208, looked up)
Fibroblast growth factor 10: QALGQDMVSPEATNSSSSSFSSPSSAGRHVRSYNHLQGDVRWRKLFSFTKYFLKIEKNGKVSGTKKENCPYSILEITSVEIGVVAVKAINSNYYLAMNKKGKLYGSKEFNNDCKLKERIEENGYNTYASFNWQHNGRQMYVALNGKGAPRRGQKTRRKNTSAHFLPMVVHS
effect of removing the factor on generation of FOXA2+ and FOXA2+NKX2.1+ cells (RUES2 cells [1]; [3]): no effect

B3: NOGGIN: biological inhibitor of BMP4 signaling (protein, UniProt Q13253 28-232, looked up)
Noggin: QHYLHIRPAPSDNLPLVDLIEHPDPIFDPKEKDLNETLLRSLLGGHYDPGFMATSPPEDRPGGGGGAAGGAEDLAELDQLLRQRPSGAMPSEIKGLEFSEGLAQGKKQRLSKKLRRKLQMWLWSQTFCPVLYAWNDLGSRFWPRYVKVGSCFSKRSCSVPEGMVCKPSKSVHLTVLRWRCQRRGGQRCGWIPIQYPIISECKCSC
generation of FOXA2+NKX2.1+ cells (RUES2 cells [1]; BMP signaling blocked by addition of the substance during ventralization stage): less than 5%

B4: FGF7: human FGF7 (KGF), factor of the ventralization cocktail (protein, UniProt P21781 32-194, looked up)
Fibroblast growth factor 7: CNDMTPEQMATNVNCSSPERHTRSYDYMEGGDIRVRRLFCRTQWYLRIDKRGKVKGTQEMKNNYNIMEIRTVAVGIVAIKGVESEFYLAMNKEGKLYAKKECNEDCNFKELILENHYNTYASAKWTHNGGEMFVALNQKGIPVRGKKTKKEQKTAHFLPMAIT
effect of removing the factor on generation of FOXA2+ and FOXA2+NKX2.1+ cells (RUES2 cells [1]; [3]): no effect
